Assay results reported in PubChem BioAssay (NCI).
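Dose response: 5 concentrations. Exposure: 48 h. Format: 96-well plates. Endpoint: linear interpolation; highest concentration if not reached. GI50: concentration for 50% inhibition of growth. TGI: total growth inhibition.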

Key:
Test in all cases: NCI-60 cell line screen, 48 h
IGROV1 ovarian = test system: IGROV1 ovarian
KM12 colon = test system: KM12 colon
SF-268 CNS = test system: SF-268 CNS
OVCAR-4 ovarian = test system: OVCAR-4 ovarian
NCI-H460 lung = test system: NCI-H460 lung
OVCAR-3 ovarian = test system: OVCAR-3 ovarian
HT29 colon = test system: HT29 colon
SR leukemia = test system: SR leukemia
MALME-3M melanoma = test system: MALME-3M melanoma
OVCAR-5 ovarian = test system: OVCAR-5 ovarian

SMILES	TGI (IGROV1 ovarian)	TGI (KM12 colon)	TGI (SF-268 CNS)	TGI (OVCAR-4 ovarian)	TGI (NCI-H460 lung)	TGI (OVCAR-3 ovarian)	TGI (HT29 colon)	TGI (SR leukemia)	TGI (MALME-3M melanoma)	GI50 (IGROV1 ovarian)	GI50 (KM12 colon)	GI50 (SR leukemia)	GI50 (SF-268 CNS)	GI50 (OVCAR-5 ovarian)	TGI (OVCAR-5 ovarian)	GI50 (MALME-3M melanoma)	GI50 (OVCAR-4 ovarian)	GI50 (NCI-H460 lung)	GI50 (OVCAR-3 ovarian)	GI50 (HT29 colon)
COP1(=O)CC2C(Cl)(Cl)C2(C)C1 (configuration not stated)	> 100 µM	> 100 µM	> 100 µM	> 100 µM	> 100 µM	> 100 µM	> 100 µM	–	–	–	–	–	–	–	–	–	–	–	–	–
CCOC(=O)C(C)(C)Oc1ccc2c(=O)cc(-c3ccc(Cl)cc3)oc2c1	> 100 µM	–	> 100 µM	> 100 µM	> 100 µM	> 100 µM	> 100 µM	> 100 µM	> 100 µM	–	–	–	–	–	–	–	–	–	–	–
CC(=O)Oc1cc(C)ccc1[C@]1(C)CC[C@H](C)/C1=C\Br	26.6 µM	12 µM	17.9 µM	12.6 µM	15.2 µM	7.16 µM	5.06 µM	12.8 µM	10.2 µM	7.6 µM	2.92 µM	2.72 µM	4.76 µM	6.9 µM	19.5 µM	2.95 µM	2.87 µM	4.17 µM	2.61 µM	2.45 µM
CC1(C)C(=O)N(c2ccccc2)C(=O)N1c1nc2ccccc2[nH]1	> 100 µM	> 100 µM	> 100 µM	–	> 100 µM	> 100 µM	> 100 µM	> 100 µM	> 100 µM	–	–	–	–	–	> 100 µM	–	–	–	–	–
O=C1C=C(c2c(O)ccc3ccccc23)c2ccccc2C1=O	9.01 µM	11.8 µM	17.2 µM	3.79 µM	26.8 µM	6.02 µM	27.2 µM	–	26.7 µM	–	–	–	–	–	25 µM	–	–	–	–	–
CN(C)CCNc1nc2ccccc2c2c1c1c(n2Cc2ccccc2)-c2ccccc2C1=O	49.5 µM	–	28.6 µM	27 µM	26.7 µM	34.8 µM	22.2 µM	20.9 µM	–	12.1 µM	–	2.85 µM	12.2 µM	12.3 µM	27.8 µM	–	12.6 µM	10.5 µM	17.2 µM	6.92 µM
O=C1c2cc(Br)ccc2-c2c1c1ccc([N+](=O)[O-])cc1c(=O)n2CCCCl	4.58 µM	> 41.6 µM	35.5 µM	77.7 µM	5.4 µM	14.5 µM	12.1 µM	–	7.74 µM	0.13 µM	0.5 µM	< 0.01 µM	< 0.0258 µM	2.57 µM	21.8 µM	0.25 µM	11.2 µM	< 0.01 µM	1.11 µM	0.309 µM
CC1CC(c2ccccc2)=Nc2ccccc2S1(=O)=O (configuration not stated)	37.8 µM	31.3 µM	31.4 µM	38.3 µM	34.9 µM	32.8 µM	–	–	37.1 µM	–	–	–	–	–	35.7 µM	–	–	–	–	–
COc1ccc(/C=C/c2cc(OC)c(OC)c(OC)c2)cc1NC(=O)/C=C/c1ccc(F)cc1	> 100 µM	> 100 µM	> 100 µM	> 100 µM	> 100 µM	6.23 µM	13.5 µM	–	> 100 µM	5.71 µM	2.96 µM	–	7.7 µM	5.97 µM	> 100 µM	3.87 µM	5.95 µM	3.09 µM	2.43 µM	2.34 µM
CC1(C)C=CC[C@]2(C)[C@H]3CC[C@@H]4[C@H]5[C@H](C(=O)/C=C/c6cccnc6)CC[C@]5(CO)CC[C@@]4(C)[C@]3(C)CC[C@@H]12	2.77 µM	2.42 µM	–	3.41 µM	2.41 µM	2.71 µM	2.68 µM	3.7 µM	2.8 µM	1.31 µM	1.01 µM	0.631 µM	–	1.32 µM	2.83 µM	1.38 µM	1.47 µM	1.03 µM	1.37 µM	1.23 µM
CCN(CC)CCC1CC/C(=C\c2ccc(OC)cc2)C1=O (configuration not stated)	> 100 µM	> 100 µM	> 100 µM	> 100 µM	–	> 100 µM	> 100 µM	> 100 µM	> 100 µM	–	–	–	–	–	> 100 µM	–	–	–	–	–
CC(=O)NC(CCCCNC(=O)OCc1ccccc1)C(=O)NCc1ccccc1 (configuration not stated)	> 100 µM	> 100 µM	> 100 µM	> 100 µM	> 100 µM	> 100 µM	> 100 µM	–	> 100 µM	–	–	–	–	–	> 100 µM	–	–	–	–	–
Nc1nc(-c2cccc([N+](=O)[O-])c2)c(Br)c(=O)[nH]1	> 100 µM	> 100 µM	> 100 µM	> 100 µM	> 100 µM	> 100 µM	> 100 µM	> 100 µM	–	–	–	–	–	–	> 100 µM	–	–	–	–	–
COc1cc(-c2cc(=O)c3cc4c(cc3[nH]2)OCO4)cc(OC)c1OC	> 100 µM	> 100 µM	> 100 µM	> 100 µM	> 100 µM	> 100 µM	> 100 µM	> 100 µM	> 100 µM	–	–	–	32.7 µM	–	–	–	–	–	> 100 µM	–
Cc1cc2c(CC(=O)O)[nH]nc2c(C(=O)O)c1C	–	–	> 100 µM	–	> 100 µM	> 100 µM	> 100 µM	> 100 µM	> 100 µM	–	–	–	–	–	> 100 µM	–	–	–	–	–
O=C(Nc1ccc(Cl)cc1)Nc1ccc(Cl)c(Cl)c1	> 100 µM	13.8 µM	> 100 µM	> 100 µM	12.6 µM	> 100 µM	> 100 µM	–	–	4.78 µM	3.31 µM	–	4.36 µM	4.29 µM	> 100 µM	–	3.88 µM	2.77 µM	3.31 µM	3.76 µM
C=CCn1c(C)nc2cc(Nc3nc(Nc4ccc5nc(C)n(CC=C)c5c4)c4ccccc4n3)ccc21	–	0.659 µM	3.1 µM	0.583 µM	–	0.342 µM	0.348 µM	–	–	–	0.254 µM	–	1.28 µM	0.751 µM	2 µM	–	0.24 µM	–	0.183 µM	0.19 µM
CC(=O)NC1=N/C(=C/c2cc([N+](=O)[O-])ccc2O)CN1C	> 100 µM	> 100 µM	–	> 100 µM	> 100 µM	> 100 µM	> 100 µM	–	–	–	–	–	–	–	> 100 µM	–	–	–	–	–
